Patent publication US8268882B2 (priority 2009, dated 2012)
Where two headings read alike, the source gives them in different places.

Columns and labels:
[1] = test system: Human T cell lymphoma (Jurkat) cells
[2] = in vitro; settings: human
[3] = test system: IL-2 production in Jurkat cells; experiment: cells; format: cell-based, human; settings: for IC50: read-out: immunosuppression IL-2 (IC50)

CC(C)[C@]12O[C@H]1[C@@H]1O[C@]13[C@@]1(OC(=O)O[C@H]21)[C@H](Cl)C[C@H]1C2=C(CC[C@@]13C)C(=O)OC2 [PG762]
cytotoxicity in MTT assay compared with triptolide [1]: comparable potency | cytotoxicity to Jurkat cells [1]: cytotoxic to Jurkat cells | EC50 [2]: 60 nM | inhibition of IL-2 production [3]: inhibited IL-2 production | IC50 ([3]; Homo sapiens, Jurkat, 24 h): 9 nM

CC(C)[C@]1(O)[C@H](Cl)[C@@H]2O[C@]23[C@@]2(OC(=O)O[C@H]12)[C@H](Cl)C[C@H]1C2=C(CC[C@@]13C)C(=O)OC2 [PG757]
cytotoxicity in MTT assay compared with triptolide [1]: significantly more cytotoxic | cytotoxicity to Jurkat cells [1]: cytotoxic to Jurkat cells | EC50 [2]: 32 nM | inhibition of IL-2 production [3]: inhibited IL-2 production | IC50 ([3]; Homo sapiens, Jurkat, 24 h): 9 nM

CC(C)[C@]12O[C@H]1[C@@H]1O[C@]13[C@]1(O[C@H]1C[C@H]1C4=C(CC[C@@]13C)C(=O)OC4)[C@@H]2OC(=O)C(=O)O[C@@H]1[C@@]2(C(C)C)O[C@H]2[C@@H]2O[C@]23[C@]12O[C@H]2C[C@H]1C2=C(CC[C@@]13C)C(=O)OC2 [PG782]
cytotoxicity in MTT assay compared with triptolide [1]: more potent than triptolide | cytotoxicity to Jurkat cells [1]: cytotoxic to Jurkat cells | EC50 [2]: 53 nM | inhibition of IL-2 production [3]: inhibited IL-2 production | IC50 ([3]; Homo sapiens, Jurkat, 24 h): 2 nM

triptolide [PG490, reference compound]
EC50 ([1]; read-out: Viability/Cytotoxicity MTT (ED50), Jurkat cells, 24 h culture, test compounds incubated in serum for 24 hrs): 60 nM | IC50 ([3]; Jurkat cells stimulated with PMA and PHA, 24 hrs, test compounds incubated in serum for 24 hrs): 4 nM
